Reference: patent US12077537B2 (Gilead Sciences, Inc., priority 2020, dated 2024)

Test system: HIV-IIIb
Assay: Antiviral assay in MT4 cells
Type: cell-based
Conditions: Human immunodeficiency virus 1, MT4, 120 h; MT-4 cells mixed with HIV-IIIb at m.o.i. 0.003; 5 days at 37° C.; CellTiter-Glo luminescence; 50% decrease in signal, a measure of HIV-1 replication
Summary of the method: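 MT-4 cells were infected with HIV-IIIb at m.o.i. 0.003 for 1 hour, then added to 3-fold serially diluted compound (10 concentrations, quadruplicate) in medium with 10% FBS. After 5 days at 37° C, cell viability was read by CellTiter-Glo chemiluminescence.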

In order of falling EC50:
1. Cn1nc(NS(C)(=O)=O)c2cccc(-c3cc4sc(N5CCC6(CC5)CNC6)nc4nc3[C@H](Cc3cc(F)cc(F)c3)NC(=O)Cn3nc(C(F)(F)F)c4c3C(F)(F)[C@@H]3C[C@H]43)c21 [Example 90, 2-((3bS,4aR)-5,5-difluoro-3-(trifluoromethyl)-3b,4,4a,5-tetrahydro-1H-cyclopropa[3,4]cyclopenta[1,2-c]pyrazol-1-yl)-N—((S)-2-(3,5-difluorophenyl)-1-(6-(1-methyl-3-(methylsulfonamido)-1H-indazol-7-yl)-2-(2,7-diazaspiro[3.5]nonan-7-yl)thiazolo[4,5-b]pyridin-5-yl)ethyl)acetamide]  431 nM
2. Cn1nc(NS(C)(=O)=O)c2cccc(-c3cc4sc(N5CC6(CNC6)C5)nc4nc3[C@H](Cc3cc(F)cc(F)c3)NC(=O)Cn3nc(C(F)(F)F)c4c3C(F)(F)[C@@H]3C[C@H]43)c21 [Example 87, 2-((3bS,4aR)-5,5-difluoro-3-(trifluoromethyl)-3b,4,4a,5-tetrahydro-1H-cyclopropa[3,4]cyclopenta[1,2-c]pyrazol-1-yl)-N—((S)-2-(3,5-difluorophenyl)-1-(6-(1-methyl-3-(methylsulfonamido)-1H-indazol-7-yl)-2-(2,6-diazaspiro[3.3]heptan-2-yl)thiazolo[4,5-b]pyridin-5-yl)ethyl)acetamide]  269 nM
3. Cn1nc(NS(C)(=O)=O)c2cccc(-c3cc4sc(N5CC6(CCNCC6)C5)nc4nc3[C@H](Cc3cc(F)cc(F)c3)NC(=O)Cn3nc(C(F)(F)F)c4c3C(F)(F)[C@@H]3C[C@H]43)c21 [Example 91, 2-((3bS,4aR)-5,5-difluoro-3-(trifluoromethyl)-3b,4,4a,5-tetrahydro-1H-cyclopropa[3,4]cyclopenta[1,2-c]pyrazol-1-yl)-N—((S)-2-(3,5-difluorophenyl)-1-(6-(1-methyl-3-(methylsulfonamido)-1H-indazol-7-yl)-2-(2,7-diazaspiro[3.5]nonan-2-yl)thiazolo[4,5-b]pyridin-5-yl)ethyl)acetamide]  64.9 nM
4. Cn1nc(NS(C)(=O)=O)c2cccc(-c3cc4sc(N5CCN(C(=O)C(C)(C)N)CC5)nc4nc3[C@H](Cc3cc(F)cc(F)c3)NC(=O)Cn3nc(C(F)(F)F)c4c3C(F)(F)[C@@H]3C[C@H]43)c21 [Example 83, N—((S)-1-(2-(4-(2-amino-2-methylpropanoyl)piperazin-1-yl)-6-(1-methyl-3-(methylsulfonamido)-1H-indazol-7-yl)thiazolo[4,5-b]pyridin-5-yl)-2-(3,5-difluorophenyl)ethyl)-2-((3bS,4aR)-5,5-difluoro-3-(trifluoromethyl)-3b,4,4a,5-tetrahydro-1H-cyclopropa[3,4]cyclopenta[1,2-c]pyrazol-1-yl)acetamide]  52.3 nM
5. Cn1nc(NS(C)(=O)=O)c2cccc(-c3cc4sc(N5CCC6(CC5)CNC(=O)O6)nc4nc3[C@H](Cc3cc(F)cc(F)c3)NC(=O)Cn3nc(C(F)(F)F)c4c3C(F)(F)[C@@H]3C[C@H]43)c21 [Example 80, 2-((3bS,4aR)-5,5-difluoro-3-(trifluoromethyl)-3b,4,4a,5-tetrahydro-1H-cyclopropa[3,4]cyclopenta[1,2-c]pyrazol-1-yl)-N—((S)-2-(3,5-difluorophenyl)-1-(6-(1-methyl-3-(methylsulfonamido)-1H-indazol-7-yl)-2-(2-oxo-1-oxa-3,8-diazaspiro[4.5]decan-8-yl)thiazolo[4,5-b]pyridin-5-yl)ethyl)acetamide]  24.8 nM
6. Cn1nc(NS(C)(=O)=O)c2cccc(-c3cc4sc(N5CC6(CCN6)C5)nc4nc3[C@H](Cc3cc(F)cc(F)c3)NC(=O)Cn3nc(C(F)(F)F)c4c3C(F)(F)[C@@H]3C[C@H]43)c21 [Example 85, 2-((3bS,4aR)-5,5-difluoro-3-(trifluoromethyl)-3b,4,4a,5-tetrahydro-1H-cyclopropa[3,4]cyclopenta[1,2-c]pyrazol-1-yl)-N—((S)-2-(3,5-difluorophenyl)-1-(6-(1-methyl-3-(methylsulfonamido)-1H-indazol-7-yl)-2-(1,6-diazaspiro[3.3]heptan-6-yl)thiazolo[4,5-b]pyridin-5-yl)ethyl)acetamide]  21.8 nM
7. Cn1nc(NS(C)(=O)=O)c2cccc(-c3cc4sc(NC5(C)CC5)nc4nc3[C@H](Cc3cc(F)cc(F)c3)NC(=O)Cn3nc(C(F)(F)F)c4c3C(F)(F)[C@@H]3C[C@H]43)c21 [Example 81, 2-((3bS,4aR)-5,5-difluoro-3-(trifluoromethyl)-3b,4,4a,5-tetrahydro-1H-cyclopropa[3,4]cyclopenta[1,2-c]pyrazol-1-yl)-N—((S)-2-(3,5-difluorophenyl)-1-(6-(1-methyl-3-(methylsulfonamido)-1H-indazol-7-yl)-2-((1-methylcyclopropyl)amino)thiazolo[4,5-b]pyridin-5-yl)ethyl)acetamide]  18.6 nM
8. Cn1nc(NS(C)(=O)=O)c2cccc(-c3cc4sc(N5CCNCC5)nc4nc3[C@H](Cc3cc(F)cc(F)c3)NC(=O)Cn3nc(C(F)(F)F)c4c3C(F)(F)[C@@H]3C[C@H]43)c21 [Example 86, 2-((3bS,4aR)-5,5-difluoro-3-(trifluoromethyl)-3b,4,4a,5-tetrahydro-1H-cyclopropa[3,4]cyclopenta[1,2-c]pyrazol-1-yl)-N—((S)-2-(3,5-difluorophenyl)-1-(6-(1-methyl-3-(methylsulfonamido)-1H-indazol-7-yl)-2-(piperazin-1-yl)thiazolo[4,5-b]pyridin-5-yl)ethyl)acetamide]  15.3 nM
9. CNc1nc2nc([C@H](Cc3cc(F)cc(F)c3)NC(=O)Cn3nc(C(F)(F)F)c4c3C(F)(F)[C@@H]3C[C@H]43)c(-c3cccc4c(NS(C)(=O)=O)nn(C)c34)cc2s1 [Example 79, 2-((3bS,4aR)-5,5-difluoro-3-(trifluoromethyl)-3b,4,4a,5-tetrahydro-1H-cyclopropa[3,4]cyclopenta[1,2-c]pyrazol-1-yl)-N—((S)-2-(3,5-difluorophenyl)-1-(6-(1-methyl-3-(methylsulfonamido)-1H-indazol-7-yl)-2-(methylamino)thiazolo[4,5-b]pyridin-5-yl)ethyl)acetamide]  14.9 nM
10. Cn1nc(NS(C)(=O)=O)c2cccc(-c3cc4[nH]c(C5CC5)nc4nc3[C@H](Cc3cc(F)cc(F)c3)NC(=O)Cn3nc(C(F)(F)F)c4c3C(F)(F)[C@@H]3C[C@H]43)c21 [Example 92, N—((S)-1-(2-cyclopropyl-6-(1-methyl-3-(methylsulfonamido)-1H-indazol-7-yl)-1H-imidazo[4,5-b]pyridin-5-yl)-2-(3,5-difluorophenyl)ethyl)-2-((3bS,4aR)-5,5-difluoro-3-(trifluoromethyl)-3b,4,4a,5-tetrahydro-1H-cyclopropa[3,4]cyclopenta[1,2-c]pyrazol-1-yl)acetamide]  14.8 nM
11. C[C@@H]1CN(c2nc3nc([C@H](Cc4cc(F)cc(F)c4)NC(=O)Cn4nc(C(F)(F)F)c5c4C(F)(F)[C@@H]4C[C@H]54)c(-c4cccc5c(NS(C)(=O)=O)nn(C)c45)cc3s2)CCN1 [Example 89, 2-((3bS,4aR)-5,5-difluoro-3-(trifluoromethyl)-3b,4,4a,5-tetrahydro-1H-cyclopropa[3,4]cyclopenta[1,2-c]pyrazol-1-yl)-N—((S)-2-(3,5-difluorophenyl)-1-(6-(1-methyl-3-(methylsulfonamido)-1H-indazol-7-yl)-2-((R)-3-methylpiperazin-1-yl)thiazolo[4,5-b]pyridin-5-yl)ethyl)acetamide]  11.3 nM
12. Cn1nc(NS(C)(=O)=O)c2cccc(-c3cc4[nH]c(C5CC5)nc4nc3[C@H](Cc3cc(F)cc(F)c3)NC(=O)Cn3nc(C(F)F)c4c3C(F)(F)[C@@H]3C[C@H]43)c21 [Example 93, N—((S)-1-(2-cyclopropyl-6-(1-methyl-3-(methylsulfonamido)-1H-indazol-7-yl)-1H-imidazo[4,5-b]pyridin-5-yl)-2-(3,5-difluorophenyl)ethyl)-2-((3bS,4aR)-3-(difluoromethyl)-5,5-difluoro-3b,4,4a,5-tetrahydro-1H-cyclopropa[3,4]cyclopenta[1,2-c]pyrazol-1-yl)acetamide]  11.1 nM
13. C[C@H]1CN(c2nc3nc([C@H](Cc4cc(F)cc(F)c4)NC(=O)Cn4nc(C(F)(F)F)c5c4C(F)(F)[C@@H]4C[C@H]54)c(-c4cccc5c(NS(C)(=O)=O)nn(C)c45)cc3s2)CCN1 [Example 88, 2-((3bS,4aR)-5,5-difluoro-3-(trifluoromethyl)-3b,4,4a,5-tetrahydro-1H-cyclopropa[3,4]cyclopenta[1,2-c]pyrazol-1-yl)-N—((S)-2-(3,5-difluorophenyl)-1-(6-(1-methyl-3-(methylsulfonamido)-1H-indazol-7-yl)-2-((S)-3-methylpiperazin-1-yl)thiazolo[4,5-b]pyridin-5-yl)ethyl)acetamide]  10.3 nM
14. Cn1nc(NS(C)(=O)=O)c2cccc(-c3cc4sc(N5CCC6(CC5)CNC6=O)nc4nc3[C@H](Cc3cc(F)cc(F)c3)NC(=O)Cn3nc(C(F)(F)F)c4c3C(F)(F)[C@@H]3C[C@H]43)c21 [Example 84, 2-((3bS,4aR)-5,5-difluoro-3-(trifluoromethyl)-3b,4,4a,5-tetrahydro-1H-cyclopropa[3,4]cyclopenta[1,2-c]pyrazol-1-yl)-N—((S)-2-(3,5-difluorophenyl)-1-(6-(1-methyl-3-(methylsulfonamido)-1H-indazol-7-yl)-2-(1-oxo-2,7-diazaspiro[3.5]nonan-7-yl)thiazolo[4,5-b]pyridin-5-yl)ethyl)acetamide]  9.9 nM
15. Cn1nc(NS(C)(=O)=O)c2cccc(-c3cc4sc(N5CCOCC5)nc4nc3[C@H](Cc3cc(F)cc(F)c3)NC(=O)Cn3nc(C(F)(F)F)c4c3C(F)(F)[C@@H]3C[C@H]43)c21 [Example 82, 2-((3bS,4aR)-5,5-difluoro-3-(trifluoromethyl)-3b,4,4a,5-tetrahydro-1H-cyclopropa[3,4]cyclopenta[1,2-c]pyrazol-1-yl)-N—((S)-2-(3,5-difluorophenyl)-1-(6-(1-methyl-3-(methylsulfonamido)-1H-indazol-7-yl)-2-morpholinothiazolo[4,5-b]pyridin-5-yl)ethyl)acetamide]  6.6 nM
